The test system of assay [1] is Corynebacteria. Description: MIC against Corynebacteria (average / overall). Type of assay: cell-based, Corynebacterium. The note with it: malodor forming axilla bacteria. An excerpt:
(§1) The different bacterial strains had been isolated from the human axilla by current microbiological practice. They were taxonomically identified by cell morphology, gram-reaction, and biochemical tests included in the Api coryne test kit (BioMerieux, France). Strain Staphylococcus epidermidis Ax25 was identified by fatty acid methyl ester analysis (FAME; German type strain collection DSMZ, Germany). The strains were maintained on Tryptic soy broth plates, this standard medium being amended with 5 g per Liter of Tween 80 and 1 g of Soybean lecithin. Plates were incubated at 36° C. for a period 48 hours. The bacteria were then swabbed from the plates and suspended in 4 ml of Muller-Hinton broth amended with 100 mg of Tween 80 per Liter (MH-Tween) and incubated again at 360 C for 16 hours. Following incubation the bacterial suspensions were diluted in MH-Tween to obtain a final cell density of 10^6 colony forming units per ml. For each fragrance material four microtiter plates were used in the example, each microtiter plate having 8 rows, A-H, and 12 columns, 1-12. […]
Since sandela is known to be a mixture of different reaction products, commercial sandela was subjected to a distillation process. […] The different fractions were evaluated for their antimicrobial activity (Table 6) with the method described in example 1. […]

Assay [2] concerns Ax 15 Corynebacterium jeikeium. The assay is described as follows: MIC microtiter plate test, axilla strain Ax 15. The assay is classed as cell-based. As to conditions: for Minimal inhibitory concentration (MIC) Ax 15: at least 80% growth inhibition, 24 h, 36° C., Table 1; for Bacteriostatic activity Corynebact. Ax 15: at least 80% reduction in growth during 24 hours, Table 7. An excerpt: (§2) The different bacterial strains had been isolated from the human axilla by current microbiological practice. They were taxonomically identified by cell morphology, gram-reaction, and biochemical tests included in the Api coryne test kit (BioMerieux, France). Strain Staphylococcus epidermidis Ax25 was identified by fatty acid methyl ester analysis (FAME; German type strain collection DSMZ, Germany). The strains were maintained on Tryptic soy broth plates, this standard medium being amended with 5 g per Liter of Tween 80 and 1 g of Soybean lecithin. Plates were incubated at 36° C. for a period 48 hours. The bacteria were then swabbed from the plates and suspended in 4 ml of Muller-Hinton broth amended with 100 mg of Tween 80 per Liter (MH-Tween) and incubated again at 360 C for 16 hours. Following incubation the bacterial suspensions were diluted in MH-Tween to obtain a final cell density of 10^6 colony forming units per ml. For each fragrance material four microtiter plates were used in the example, each microtiter plate having 8 rows, A-H, and 12 columns, 1-12. To each column a diluted suspension of a different test organism was distributed, 100 μl per well. 1% stock solutions of the fragrance materials were then prepared in MH-Tween broth. The fragrance material was dispersed by ultrasonication into the aqueous medium to obtain a homogenous emulsion. 100 μl per well of this emulsion was then added to the first row of the microtiter plates already containing the target organisms. Serial dilution series were then prepared starting at row A and continuing until row G, each time removing 100 μl from a well and transferring it to the next well. In this way fragrance concentrations of 0.5%, 0.25%, 0.125%, 0.0625%, 0.03125%, 0.0156%, and 0.0078% were tested for their antibacterial efficacy. The reference compound Triclosan was tested at 16-fold lower concentrations. The plates were covered with plastic films and incubated for 24 h at 36° C. with shaking at 250 rpm. The turbidity developing in the microtiter plates was then examined after 24 h to determine microbial growth. The minimal concentration of fragrance inhibiting the growth of an organism by at least 80% was determined as the minimal inhibitory concentration (MIC).
(§3) Ax 25 was identified as Staphylococcus epidermidis by FAME analysis. Identification with the Api Coryne test kit yielded the following species assignments for the remainder of the strains: Ax 26 Corynebacterium sp.; Ax 3 Corynebacterium bovis; Ax 7 Corynebacterium group G; Ax 10 Corynebacterium jeikeium; Ax 11 Corynebacterium jeikeium; Ax 12 Corynebacteriurn jeikeium; Ax 15 Corynebacterium jeikeium; Ax 20 Corynebacterium striatum/amycolatum; and Ax 19 Corynebacterium jeikeium. The strains were isolated from the axilla of 8 human volunteers. Based on biochemical tests and colony morphology all strains were distinct from each other, even the several strains all belonging to Corynebacterium jeikelurn.

Assay [3] has as its system Ax 11 Corynebacterium jeikeium. The assay is described as follows: MIC microtiter plate test, axilla strain Ax 11. Type of assay: cell-based. The note with it: at least 80% growth inhibition, 24 h, 36° C.; Table 1.
Text: as §2, with “The minimal concentration of fragrance inhibiting the growth of an organism by at least 80% was determined as the minimal inhibitory concentration (MIC).” left out

The subject of assay [4] is Ax 7 Corynebacterium group G. Description: MIC microtiter plate test, axilla strain Ax 7. The assay is classed as cell-based. As to conditions: for Minimal inhibitory concentration (MIC) Ax 7: at least 80% growth inhibition, 24 h, 36° C., Table 1.
Text: as §2, §3

Assay [5] relates to Propionibacterium acnes DSMZ1897. Description: MIC against Propionibacterium acnes, anaerobic, 72 hours. The assay is classed as cell-based. As to conditions: DSMZ1897, anaerobic conditions.
Assay [6] has as its system Brevibacterium epidermidis DSMZ 9586. Description: MIC against Brevibacterium epidermidis. The assay is classed as cell-based. As to conditions: DSMZ 9586, method of Example 1.
Text: as §2
A selection of perfume compounds were tested against Brevibacterium epidermidis DSMZ 9586 (German Collection of Microorganisms and Cell Cultures) with the method described in Example 1.

Assay [7] concerns Ax 26 Corynebacterium sp. The assay is described as follows: MIC microtiter plate test, axilla strain Ax 26. The assay is classed as cell-based. As to conditions: for Bacteriostatic activity Corynebact. Ax 26: at least 80% reduction in growth during 24 hours, Table 7; for Minimal inhibitory concentration (MIC) Ax 26: at least 80% growth inhibition, 24 h, 36° C., Table 1.
Text: as §2
Ax 25 was identified as Staphylococcus epidermidis by FAME analysis. Identification with the Api Coryne test kit yielded the following species assignments for the remainder of the strains: Ax 26 Corynebacterium sp.; Ax 3 Corynebacterium bovis; Ax 7 Corynebacterium group G; Ax 10 Corynebacterium jeikeium; Ax 11 Corynebacterium jeikeium; Ax 12 Corynebacteriurn jeikeium; Ax 15 Corynebacterium jeikeium; Ax 20 Corynebacterium striatum/amycolatum; and Ax 19 Corynebacterium jeikeium. The strains were isolated from the axilla of 8 human volunteers. […]

For assay [8], the system named is Ax 3 Corynebacterium bovis. Description: MIC microtiter plate test, axilla strain Ax 3. The assay is classed as cell-based. As to conditions: at least 80% growth inhibition, 24 h, 36° C.; Table 1.
Text: as §2, with “The minimal concentration of fragrance inhibiting the growth of an organism by at least 80% was determined as the minimal inhibitory concentration (MIC).” left out

For assay [9], the system named is Ax 20 Corynebacterium striatum/amycolatum. Description: MIC microtiter plate test, axilla strain Ax 20. The assay is classed as cell-based. The note with it: at least 80% growth inhibition, 24 h, 36° C.; Table 1.
Text: as §2, with “The minimal concentration of fragrance inhibiting the growth of an organism by at least 80% was determined as the minimal inhibitory concentration (MIC).” left out

Assay [10] deals with Ax 19 Corynebacterium jeikeium. Description: MIC microtiter plate test, axilla strain Ax 19. Type of assay: cell-based. The note with it: at least 80% growth inhibition, 24 h, 36° C.; Table 1.
Text: as §1, with “1-12. To each column a diluted suspension of a different test organism was distributed, 100 μl per well. 1% stock solutions of the fragrance materials were then prepared in MH-Tween broth. The fragrance material was dispersed by ultrasonication into the aqueous medium to obtain a homogenous emulsion.” for “1-12.”

Assay [11] relates to Ax 12 Corynebacteriurn jeikeium. Description: MIC microtiter plate test, axilla strain Ax 12. The assay is classed as cell-based, Corynebacterium jeikeium. The note with it: at least 80% growth inhibition, 24 h, 36° C.; Table 1.
Text: as §2, with “The minimal concentration of fragrance inhibiting the growth of an organism by at least 80% was determined as the minimal inhibitory concentration (MIC).” left out

The test system of assay [12] is Ax 10 Corynebacterium jeikeium. Description: MIC microtiter plate test, axilla strain Ax 10. The assay is classed as cell-based. As to conditions: at least 80% growth inhibition, 24 h, 36° C.; Table 1.
Text: as §1, with “1-12. To each column a diluted suspension of a different test organism was distributed, 100 μl per well. 1% stock solutions of the fragrance materials were then prepared in MH-Tween broth. The fragrance material was dispersed by ultrasonication into the aqueous medium to obtain a homogenous emulsion.” for “1-12.”

Turning to `COC1CC(C2CC3CC2C(C)C3(C)C)CCC1O` (stereo not drawn) [2-methoxy-4-(5,5,6-trimethylbicyclo[2.2.1]hept-2-yl)cyclohexan-1-ol], in assay [1], the “activity against Corynebacteria (in words)” value is listed as “highest activity”.

Consider `Oc1cc(Cl)ccc1Oc1ccc(Cl)cc1Cl` [Triclosan, 2,4,4′-trichloro-2′-hydroxy-diphenyl-ether], for which, in assay [2], the “Minimal inhibitory concentration (MIC) Ax 15” value is recorded as 0.0029 % weight/ volume. Further, the “Minimal inhibitory concentration (MIC) Ax 11” value in [3] worked out at 0.0029 % weight/ volume. Further, the “Minimal inhibitory concentration (MIC) Ax 7” value in [4] is reported as 0.0029 % weight/ volume. For the same compound, in assay [4] (at least 80% reduction in growth during 24 hours, Table 7), the “Bacteriostatic activity Corynebact. Ax 7” value is on record as 0.0025 percent (w/v). Further, the “MIC for Propionibacterium acnes” value in assay [5] turned out to be 0.00039 % w/v. Moreover, in assay [6], the “MIC for Brevibacterium epidermidis” value was 0.003125 % w/v.

Turning to `COC1CC(C2CC3CC2C(C)C3(C)C)CCC1O` (single isomer, unassigned) [Peak A], in assay [2], the “Bacteriostatic activity Corynebact. Ax 15” value was 0.0048 percent (w/v). In addition, the “Bacteriostatic activity Corynebact. Ax 26” value in assay [7] is reported as 0.0028 percent (w/v).

`CC(C)=CCCC(C)=CCCC(C)=CCO` [Farnesol, 3,7,11-trimethyl-2,6,10-dodecatrien-1-ol]: the “Minimal inhibitory concentration (MIC) Ax 3” value in assay [8] is listed as 0.0156 % weight/ volume. In assay [2], the “Minimal inhibitory concentration (MIC) Ax 15” value worked out at 0.0156 % weight/ volume and the “Bacteriostatic activity Corynebact. Ax 15” value was 0.0156 percent (w/v). For the same compound, the “Minimal inhibitory concentration (MIC) Ax 20” value in assay [9] is 0.0137 % weight/ volume. Also, the “Minimal inhibitory concentration (MIC) Ax 19” value in [10] is given as 0.0156 % weight/ volume. Also, the “Minimal inhibitory concentration (MIC) Ax 12” value in [11] worked out at 0.0137 % weight/ volume. In addition, the “Minimal inhibitory concentration (MIC) Ax 10” value in assay [12] was determined as 0.0078 % weight/ volume. Moreover, the “MIC for Propionibacterium acnes” value in assay [5] was 0.0078 % w/v. The “MIC for Brevibacterium epidermidis” value in [6] came to 0.0078 % w/v.

With `CC1=CCC(/C=C\C(C)C(C)O)C1(C)C` (stereo not drawn) [Ebanol], the “Minimal inhibitory concentration (MIC) Ax 3” value in [8] worked out at 0.1250 % weight/ volume. For the same compound, in assay [2], the “Minimal inhibitory concentration (MIC) Ax 15” value was determined as 0.2500 % weight/ volume. Further, the “Minimal inhibitory concentration (MIC) Ax 11” value in assay [3] amounted to 0.2500 % weight/ volume. For the same compound, the “Minimal inhibitory concentration (MIC) Ax 7” value in [4] is 0.1250 % weight/ volume. Also, the “Minimal inhibitory concentration (MIC) Ax 20” value in [9] was determined as 0.1250 % weight/ volume. Besides, the “Minimal inhibitory concentration (MIC) Ax 12” value in [11] is 0.2500 % weight/ volume. In addition, the “Minimal inhibitory concentration (MIC) Ax 26” value in assay [7] amounted to 0.1250 % weight/ volume.

On to `COC1CCC(C2CC3CC2C(C)C3(C)C)CC1O` (stereo not drawn) [2-methoxy-5-(5,5,6-trimethyl-bicyclo[2.2.1]hept-2-yl)cyclohexan-1-ol], for which the “activity against Corynebacteria (in words)” value in [1] was “highest activity”.

As for `CCC(=CCC1CC=C(C)C1(C)C)CO` (stereo not drawn) [Radjanol], the “Minimal inhibitory concentration (MIC) Ax 7” value in [4] is given as 0.0625 % weight/ volume. Besides, the “MIC for Brevibacterium epidermidis” value in [6] worked out at 0.03125 % w/v.

Consider `CC1=CCC(CCC(C)C(C)O)C1(C)C` (stereo not drawn) [Sandalore], for which the “Minimal inhibitory concentration (MIC) Ax 3” value in assay [8] was 0.1250 % weight/ volume. Besides, the “Minimal inhibitory concentration (MIC) Ax 11” value in assay [3] came to 0.1250 % weight/ volume. Further, in assay [4], the “Minimal inhibitory concentration (MIC) Ax 7” value was 0.1250 % weight/ volume. Besides, the “Minimal inhibitory concentration (MIC) Ax 20” value in assay [9] came out at 0.1250 % weight/ volume. In assay [11], the “Minimal inhibitory concentration (MIC) Ax 12” value was found to be 0.1250 % weight/ volume. For the same compound, the “Minimal inhibitory concentration (MIC) Ax 10” value in assay [12] was 0.1250 % weight/ volume. Besides, in assay [7], the “Minimal inhibitory concentration (MIC) Ax 26” value worked out at 0.1250 % weight/ volume. Also, the “MIC for Propionibacterium acnes” value in assay [5] came to 0.25 % w/v. The “MIC for Brevibacterium epidermidis” value in assay [6] was 0.0937 % w/v.

In the case of `COC1CC(C2CC3CC2C(C)C3(C)C)CCC1O` (single isomer, unassigned) [Peak B], in assay [2], the “Bacteriostatic activity Corynebact. Ax 15” value was 0.0028 percent (w/v). In addition, in assay [7], the “Bacteriostatic activity Corynebact. Ax 26” value is given as 0.0016 percent (w/v).

The values are drawn from patent US20020049257A1, “Antibacterial composition” (priority 2000, published 2002).
